Experimental data: patent US11278503B2, “Pharmaceutical compositions comprising semifluorinated alkanes for the treatment of contact lense-related conditions” (NOVALIQ GMBH, priority 2017, dated 2022)

Experiment: Physical properties of the semifluorinated alkanes stated in the description
Type: physicochemical
Settings: for refractive index: at 20° C.; for density: at 25° C.

| Structure (SMILES) | chemical and physiological inertness (in words) | solubility in water (in words) | refractive index | density [g/mL] |
| --- | --- | --- | --- | --- |
| CCCCCC(F)(F)C(F)(F)C(F)(F)C(F)(F)F [F4H5, 1-perfluorobutyl-pentane] | chemically and physiologically inert | water-insoluble | 1.3204 | 1.284 |
| CCCCCCCCC(F)(F)C(F)(F)C(F)(F)C(F)(F)C(F)(F)C(F)(F)F [F6H8, 1-perfluorohexyl-octane] | chemically and physiologically inert | water-insoluble | 1.3432 | 1.35 |
